We go through 1 compound from PMC9798004 (Frontiers in Psychiatry, 2022).

One data set addresses T1, ADORA3 (Homo sapiens, UniProt P0DMS8).
T1 construct: host or cells: CHO
Kind of data set: PathHunter β-arrestin assay. The settings on record: antagonist mode vs EC80 of control agonist, 10-point curve. It is filed as cell-based.

Another data set has as its target T2, ADRA2C (Homo sapiens, UniProt P18825).
T2 sequence (P18825 1-462): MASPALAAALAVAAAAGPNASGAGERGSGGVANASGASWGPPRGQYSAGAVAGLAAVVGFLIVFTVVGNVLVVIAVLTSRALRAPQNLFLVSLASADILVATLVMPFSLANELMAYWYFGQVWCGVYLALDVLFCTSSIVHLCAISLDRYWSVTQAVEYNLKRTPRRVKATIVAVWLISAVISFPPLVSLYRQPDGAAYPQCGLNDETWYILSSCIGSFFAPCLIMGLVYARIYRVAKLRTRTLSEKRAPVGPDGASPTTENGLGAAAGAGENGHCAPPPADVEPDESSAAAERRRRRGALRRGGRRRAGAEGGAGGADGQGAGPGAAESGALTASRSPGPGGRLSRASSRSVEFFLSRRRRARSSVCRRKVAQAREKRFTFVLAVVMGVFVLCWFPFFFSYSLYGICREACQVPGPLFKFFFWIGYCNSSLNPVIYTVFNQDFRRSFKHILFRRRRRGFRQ
Description: PathHunter β-arrestin assay. In kind it is cell-based.

A further data set has as its target GPR35 (Homo sapiens, UniProt Q9HC97). Description: PathHunter β-arrestin assay. In kind it is cell-based. To be noted: antagonist mode, up to 30 μM.
The subject of the next data set is CB1. On the set-up: method as in PMID 31513380. The settings on record: 10 μM; cited from earlier work.
Another data set addresses OXTR (Homo sapiens, UniProt P30559). Kind of data set: PathHunter β-arrestin assay. In kind it is cell-based. The settings on record: antagonist mode vs EC80 of control agonist, 10-point curve.
Another data set has as its target T3, GPR119 (Homo sapiens, UniProt Q8TDV5).
T3 construct: purchased Eurofins DiscoverX (PathHunter gpcrMAX)
T3 sequence (Q8TDV5 1-335): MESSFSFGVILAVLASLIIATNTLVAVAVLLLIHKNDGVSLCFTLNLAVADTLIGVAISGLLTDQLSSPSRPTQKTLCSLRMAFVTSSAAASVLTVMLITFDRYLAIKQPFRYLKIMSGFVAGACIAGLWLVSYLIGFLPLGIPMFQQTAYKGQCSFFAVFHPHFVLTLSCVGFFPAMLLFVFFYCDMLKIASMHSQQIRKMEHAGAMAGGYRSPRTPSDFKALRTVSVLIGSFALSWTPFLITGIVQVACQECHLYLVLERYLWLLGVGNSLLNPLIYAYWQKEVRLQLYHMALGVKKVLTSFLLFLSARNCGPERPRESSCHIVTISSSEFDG
Description: PathHunter β-arrestin assay. It is filed as cell-based. To be noted: antagonist mode, 30 μM.

In the next data set the target is T4, GALR1 (Homo sapiens, UniProt P47211).
T4 construct: purchased Eurofins DiscoverX (PathHunter gpcrMAX)
Description: PathHunter β-arrestin assay. In kind it is cell-based. The settings on record: antagonist mode, up to 30 μM.

Another data set addresses MC3R (Homo sapiens, UniProt P41968). Kind of data set: PathHunter β-arrestin assay. It is filed as cell-based. The settings on record: antagonist mode vs EC80 of control agonist, 10-point curve.
The target in the next data set is HCRTR2 (Homo sapiens, UniProt O43614). Description: PathHunter β-arrestin assay. The settings on record: antagonist mode vs EC80 of control agonist, 10-point curve. It is filed as cell-based.
The subject of data set [1] is AtT20 cells expressing human CB1 (hCB1). Description: LDH release cytotoxicity assay. It is filed as cell-based. To be noted: 30 μM. Here is the method:
AtT20 cells expressing either human CB1 (hCB1) or CB2 (hCB2) receptors or wildtype (WT) were grown to confluence in T75 cm^2 flasks in Dulbecco's modified eagle medium containing 10% fetal bovine serum, 100 U penicillin/streptomycin, and 80 μg/mL hygromicyin (Sigma-Aldrich/Merck; Castle Hill, NSW, Australia). Cells were plated in 96-well-microplates at 30,000 cells per well and allowed to adhere overnight in 5% CO2. The following morning, cells were treated with either vehicle (0.1% DMSO; negative control), 30 μM Δ^9-THC, or 30 μM AMB-FUBINACA. At 1 or 6 h, the amount of lactate dehydrogenase in the cell media was tested, and compared with positive control (lysed cells) as per manufacturer's instructions (Dojindo Molecular Technologies, Inc.; Rockville, MD, USA), with readings performed on a Clariostar Plus plate reader (BMG Labtech, Mornington, VIC, Australia). Experiments were performed in triplicate. In order to measure any accumulating LDH, media was not changed after initial incubation. Data is represented as means ± S.E.M. A two-way ANOVA with was performed on the data at each time point, with Tukey's multiple comparison test (α = 0.05). A p < 0.05 was considered statistically significant.

The target of the next data set is HRH1 (Homo sapiens, UniProt P35367). In kind it is cell-based.
In a further data set the target is ADRA2B (Homo sapiens, UniProt P18089). In kind it is cell-based.
The target in another data set is MCHR1 (Homo sapiens, UniProt Q99705). Description: PathHunter β-arrestin assay. In kind it is cell-based. To be noted: antagonist mode, up to 30 μM.
In a further data set the target is T5, CHRM2 (Homo sapiens, UniProt P08172).
T5 sequence (P08172 1-466): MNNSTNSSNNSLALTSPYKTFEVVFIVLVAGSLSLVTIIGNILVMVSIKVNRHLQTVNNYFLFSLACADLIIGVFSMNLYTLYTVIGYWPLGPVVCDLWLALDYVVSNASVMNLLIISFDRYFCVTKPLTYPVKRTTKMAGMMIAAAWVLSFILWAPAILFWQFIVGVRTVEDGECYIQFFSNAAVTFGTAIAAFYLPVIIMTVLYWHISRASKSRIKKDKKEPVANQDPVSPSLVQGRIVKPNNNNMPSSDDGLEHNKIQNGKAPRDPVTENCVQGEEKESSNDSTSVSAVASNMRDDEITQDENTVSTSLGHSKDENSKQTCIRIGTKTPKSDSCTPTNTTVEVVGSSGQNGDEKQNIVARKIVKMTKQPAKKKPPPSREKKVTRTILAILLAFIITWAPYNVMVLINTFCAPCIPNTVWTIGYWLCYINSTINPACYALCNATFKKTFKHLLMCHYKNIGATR
Description: PathHunter β-arrestin assay. In kind it is cell-based. To be noted: antagonist mode vs EC80 of control agonist, 10-point curve.

Structures are written as SMILES. Entries after “also recorded” stand apart in the source; their conditions may differ.

HRH1, sequence (P35367 whole entry): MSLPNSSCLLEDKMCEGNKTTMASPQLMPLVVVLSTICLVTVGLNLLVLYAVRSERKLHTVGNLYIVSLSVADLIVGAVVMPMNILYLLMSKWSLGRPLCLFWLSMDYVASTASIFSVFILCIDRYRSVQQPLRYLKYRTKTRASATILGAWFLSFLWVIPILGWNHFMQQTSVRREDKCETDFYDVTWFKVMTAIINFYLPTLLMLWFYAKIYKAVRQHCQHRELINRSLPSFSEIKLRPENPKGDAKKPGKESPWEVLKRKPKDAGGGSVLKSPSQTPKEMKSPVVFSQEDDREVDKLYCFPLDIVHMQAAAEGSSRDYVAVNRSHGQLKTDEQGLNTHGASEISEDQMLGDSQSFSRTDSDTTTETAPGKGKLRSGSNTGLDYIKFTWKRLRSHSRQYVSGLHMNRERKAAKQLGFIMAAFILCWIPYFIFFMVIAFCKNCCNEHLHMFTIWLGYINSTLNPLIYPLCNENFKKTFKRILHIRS
ADRA2B, sequence (P18089 whole entry): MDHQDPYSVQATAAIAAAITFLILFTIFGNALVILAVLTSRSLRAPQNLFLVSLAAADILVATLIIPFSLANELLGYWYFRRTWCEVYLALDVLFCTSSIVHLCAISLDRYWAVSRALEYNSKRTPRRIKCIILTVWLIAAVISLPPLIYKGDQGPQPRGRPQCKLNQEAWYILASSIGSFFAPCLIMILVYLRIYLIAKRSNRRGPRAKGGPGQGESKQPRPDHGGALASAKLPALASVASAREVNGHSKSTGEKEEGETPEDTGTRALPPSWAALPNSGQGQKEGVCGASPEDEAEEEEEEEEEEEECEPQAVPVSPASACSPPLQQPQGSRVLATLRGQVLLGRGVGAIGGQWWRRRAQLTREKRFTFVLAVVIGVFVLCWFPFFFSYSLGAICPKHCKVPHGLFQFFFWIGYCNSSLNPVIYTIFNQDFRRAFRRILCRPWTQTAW
MCHR1, sequence (Q99705 whole entry): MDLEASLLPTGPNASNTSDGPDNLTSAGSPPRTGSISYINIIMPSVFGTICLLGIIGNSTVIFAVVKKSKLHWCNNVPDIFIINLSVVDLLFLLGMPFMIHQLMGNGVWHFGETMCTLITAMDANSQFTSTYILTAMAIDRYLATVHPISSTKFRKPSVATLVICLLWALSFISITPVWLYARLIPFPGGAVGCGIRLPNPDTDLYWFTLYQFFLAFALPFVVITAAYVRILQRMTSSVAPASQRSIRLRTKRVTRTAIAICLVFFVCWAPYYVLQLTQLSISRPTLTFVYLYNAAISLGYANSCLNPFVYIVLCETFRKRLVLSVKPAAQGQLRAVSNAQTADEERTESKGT
MC3R, sequence (P41968 whole entry): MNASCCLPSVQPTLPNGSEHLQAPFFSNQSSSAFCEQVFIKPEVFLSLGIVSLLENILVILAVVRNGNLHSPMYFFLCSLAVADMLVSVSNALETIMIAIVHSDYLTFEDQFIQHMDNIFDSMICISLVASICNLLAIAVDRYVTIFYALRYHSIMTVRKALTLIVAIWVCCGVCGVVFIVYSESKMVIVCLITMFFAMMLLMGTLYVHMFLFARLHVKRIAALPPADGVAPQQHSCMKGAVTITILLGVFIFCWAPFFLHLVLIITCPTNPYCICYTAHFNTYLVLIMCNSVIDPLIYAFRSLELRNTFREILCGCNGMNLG
T1 sequence (P0DMS8 whole entry): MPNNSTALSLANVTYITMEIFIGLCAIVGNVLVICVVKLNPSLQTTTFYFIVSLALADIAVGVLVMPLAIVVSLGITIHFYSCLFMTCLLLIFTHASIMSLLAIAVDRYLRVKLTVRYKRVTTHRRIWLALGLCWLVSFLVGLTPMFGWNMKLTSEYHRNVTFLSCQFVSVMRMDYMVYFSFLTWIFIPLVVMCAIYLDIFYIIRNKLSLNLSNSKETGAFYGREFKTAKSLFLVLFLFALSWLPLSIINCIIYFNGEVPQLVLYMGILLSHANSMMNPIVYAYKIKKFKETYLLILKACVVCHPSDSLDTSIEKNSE
HCRTR2, sequence (O43614 whole entry): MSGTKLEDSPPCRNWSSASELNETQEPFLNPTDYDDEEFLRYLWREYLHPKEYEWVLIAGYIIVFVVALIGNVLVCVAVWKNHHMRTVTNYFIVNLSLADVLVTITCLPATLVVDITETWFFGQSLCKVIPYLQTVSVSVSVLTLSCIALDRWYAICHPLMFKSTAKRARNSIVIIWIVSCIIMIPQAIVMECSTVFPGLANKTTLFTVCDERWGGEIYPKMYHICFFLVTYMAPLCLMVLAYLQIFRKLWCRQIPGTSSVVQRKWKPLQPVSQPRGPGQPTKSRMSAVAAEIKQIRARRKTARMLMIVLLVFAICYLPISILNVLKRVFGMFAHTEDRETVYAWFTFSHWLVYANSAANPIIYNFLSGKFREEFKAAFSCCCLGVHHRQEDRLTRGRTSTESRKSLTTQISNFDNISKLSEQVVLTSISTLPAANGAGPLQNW
OXTR, sequence (P30559 whole entry): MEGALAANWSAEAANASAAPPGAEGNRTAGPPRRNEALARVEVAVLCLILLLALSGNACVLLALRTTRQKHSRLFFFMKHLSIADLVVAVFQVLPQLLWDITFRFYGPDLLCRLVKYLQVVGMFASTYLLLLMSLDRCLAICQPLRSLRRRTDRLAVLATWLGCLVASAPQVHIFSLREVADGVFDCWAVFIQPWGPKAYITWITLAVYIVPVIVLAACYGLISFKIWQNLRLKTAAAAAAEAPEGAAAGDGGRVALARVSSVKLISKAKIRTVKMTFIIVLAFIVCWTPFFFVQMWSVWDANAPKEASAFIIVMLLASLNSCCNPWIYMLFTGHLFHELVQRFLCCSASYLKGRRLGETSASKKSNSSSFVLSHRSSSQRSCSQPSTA
GPR35, sequence (Q9HC97 whole entry): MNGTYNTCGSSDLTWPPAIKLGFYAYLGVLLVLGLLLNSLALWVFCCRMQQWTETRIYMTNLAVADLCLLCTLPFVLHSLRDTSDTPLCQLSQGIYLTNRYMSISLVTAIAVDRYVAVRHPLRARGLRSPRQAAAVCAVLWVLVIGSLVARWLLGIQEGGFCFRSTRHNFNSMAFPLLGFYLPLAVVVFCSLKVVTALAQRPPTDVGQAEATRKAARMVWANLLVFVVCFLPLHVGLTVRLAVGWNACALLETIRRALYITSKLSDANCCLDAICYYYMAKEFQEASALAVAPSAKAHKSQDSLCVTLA
T4 sequence (P47211 whole entry): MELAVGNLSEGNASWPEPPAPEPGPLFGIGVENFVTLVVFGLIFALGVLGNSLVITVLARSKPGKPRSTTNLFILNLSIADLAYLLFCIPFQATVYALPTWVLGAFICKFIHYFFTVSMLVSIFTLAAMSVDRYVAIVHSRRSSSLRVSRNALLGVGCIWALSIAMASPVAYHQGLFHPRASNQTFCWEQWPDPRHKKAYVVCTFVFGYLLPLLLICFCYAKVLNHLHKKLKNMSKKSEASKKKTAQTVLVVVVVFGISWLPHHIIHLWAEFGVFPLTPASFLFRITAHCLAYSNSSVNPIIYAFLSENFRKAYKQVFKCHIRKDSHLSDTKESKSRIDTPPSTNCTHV

For `COC(=O)[C@@H](NC(=O)c1nn(Cc2ccc(F)cc2)c2ccccc12)C(C)C` [AMB-FUBINACA], the IC50 (usually the point on the concentration scale where inhibition reaches its midpoint) at ADORA3 worked out at 14.6 µM; at ADRA2C (antagonist mode vs EC80 of control agonist, 10-point curve), 7.3 µM; at OXTR, 12.8 µM; at MC3R, 6.68 µM; at HCRTR2, 12.7 µM; against HRH1, 1.42 µM. In addition, the IC50 turned out to be 2.29 µM on ADRA2B and 12.9 µM on CHRM2. Moreover, the “inhibitory activity at lower concentrations” value on ADRA2C (antagonist mode, 1 μM) is “appreciable inhibitory activity”; against HRH1 (antagonist mode, 1 μM) it was “appreciable inhibitory activity”; on ADRA2B (antagonist mode, 1 μM), “appreciable inhibitory activity”. The maximum inhibition at ADRA2C (antagonist mode, concentration-response up to 30 μM) is listed as 63.11%. Also, the “inhibitory activity in concentration-response” value on GPR35 is “did not produce any clear activity”; against GALR1, “Activity was only observed at the highest concentration (30 μM)”; on MCHR1, “Activity was only observed at the highest concentration (30 μM); also recorded: only inhibited at the highest 30 μM concentration”. Also, in the data set on CB1, the “time to peak β-arrestin-2 recruitment” value is less than 10 min. In addition, the “inhibition in single-point screen” value against GPR119 was “inhibited to the greatest extent of any antagonist mode target”. Besides, the “LDH in cell media, normalized to total LDH” value in data set [1] (1 h) is listed as 17.09 ± 7.03%. In addition, the “LDH increase compared with vehicle” value in data set [1] (6 h) is reported as “not observed”.
